Laboratory results: patent US20060105393A1, “Ligand-receptor tracking assays” (priority 2004, published 2006)

Experiments:
GHSR-1a receptor = molecular target: T1, GHSR-1a receptor (Homo sapiens, UniProt Q92847); experiment: Internalization of GHSR-1a with Ghrelin(1-19)-Texas Red (high content ligand tracking); format: cell-based; conditions: 1 μM competitor, 10 nM Ghrelin(1-19)-Texas Red, 30 minutes at 37° C. (FIG. 7)
T1 construct: expressed in transfected cells

SSTR-5 = molecular target: T2, SSTR-5 (Homo sapiens, UniProt P35346); experiment: Multiplexed internalization assay, SSTR-5 readout (Atto590-SST14) in mixed NK3R and SSTR5 cells; format: cell-based; conditions: for SSTR-5 internalization with excess competitor: 1 μM competitor (FIG. 5)
T2 construct: expressed in transfected cells
T2 sequence (P35346 whole entry): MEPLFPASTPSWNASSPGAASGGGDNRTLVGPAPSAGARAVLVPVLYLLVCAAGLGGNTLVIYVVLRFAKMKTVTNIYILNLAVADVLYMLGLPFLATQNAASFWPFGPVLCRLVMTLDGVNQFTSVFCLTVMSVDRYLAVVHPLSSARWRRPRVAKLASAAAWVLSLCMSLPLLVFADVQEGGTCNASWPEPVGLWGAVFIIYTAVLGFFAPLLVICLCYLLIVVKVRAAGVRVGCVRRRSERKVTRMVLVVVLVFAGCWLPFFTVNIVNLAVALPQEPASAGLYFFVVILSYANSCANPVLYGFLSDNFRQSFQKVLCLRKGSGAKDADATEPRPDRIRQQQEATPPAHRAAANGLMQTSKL

NK3R [1] = molecular target: T3, NK3R (Homo sapiens, UniProt P29371); conditions: 1 μM competitor, 1 nM Atto655-NKB, 30 minutes at 37° C. (FIG. 3)
T3 sequence (P29371 1-465): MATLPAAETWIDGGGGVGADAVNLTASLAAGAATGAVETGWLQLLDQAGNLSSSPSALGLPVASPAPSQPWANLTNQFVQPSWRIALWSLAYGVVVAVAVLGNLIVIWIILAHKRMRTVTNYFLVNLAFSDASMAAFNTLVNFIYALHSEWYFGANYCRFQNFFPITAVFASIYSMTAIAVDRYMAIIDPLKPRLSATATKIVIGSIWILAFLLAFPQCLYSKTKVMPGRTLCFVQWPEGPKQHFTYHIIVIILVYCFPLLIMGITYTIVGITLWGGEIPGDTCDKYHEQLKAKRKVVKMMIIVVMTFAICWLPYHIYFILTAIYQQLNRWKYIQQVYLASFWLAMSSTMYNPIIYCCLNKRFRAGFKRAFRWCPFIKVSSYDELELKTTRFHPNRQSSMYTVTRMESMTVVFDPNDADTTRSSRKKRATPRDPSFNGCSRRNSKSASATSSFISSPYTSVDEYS

NK3R [2] = molecular target: T3, NK3R; conditions: mixed cells
hV1bR = hV1bR (Homo sapiens, UniProt P47901); conditions: 100 nM competitor, 5 nM BO-TMR-vasopressin, 30 minutes at 37° C. (FIG. 9)
Sequence of hV1bR (P47901 whole entry): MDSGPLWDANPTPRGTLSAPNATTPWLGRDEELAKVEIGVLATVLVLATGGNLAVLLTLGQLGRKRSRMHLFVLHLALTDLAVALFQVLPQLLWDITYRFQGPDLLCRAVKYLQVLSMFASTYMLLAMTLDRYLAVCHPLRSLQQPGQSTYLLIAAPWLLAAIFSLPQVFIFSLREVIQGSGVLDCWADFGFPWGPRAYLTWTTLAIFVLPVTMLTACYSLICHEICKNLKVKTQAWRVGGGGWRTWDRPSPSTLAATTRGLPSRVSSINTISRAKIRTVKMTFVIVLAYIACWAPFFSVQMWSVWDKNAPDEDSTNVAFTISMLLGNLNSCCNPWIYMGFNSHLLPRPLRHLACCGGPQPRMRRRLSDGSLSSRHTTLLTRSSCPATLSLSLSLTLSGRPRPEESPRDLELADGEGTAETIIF

[3] = molecular target: recombinant human Somatostatin receptor 5 (Homo sapiens, UniProt P35346); conditions: 1 μM competitor, 100 nM Atto590-SST14, 30 minutes at 37° C. (FIG. 1)
Sequence of recombinant human Somatostatin receptor 5 (P35346 whole entry): as the sequence (P35346 whole entry) above

T1 sequence (Q92847 whole entry): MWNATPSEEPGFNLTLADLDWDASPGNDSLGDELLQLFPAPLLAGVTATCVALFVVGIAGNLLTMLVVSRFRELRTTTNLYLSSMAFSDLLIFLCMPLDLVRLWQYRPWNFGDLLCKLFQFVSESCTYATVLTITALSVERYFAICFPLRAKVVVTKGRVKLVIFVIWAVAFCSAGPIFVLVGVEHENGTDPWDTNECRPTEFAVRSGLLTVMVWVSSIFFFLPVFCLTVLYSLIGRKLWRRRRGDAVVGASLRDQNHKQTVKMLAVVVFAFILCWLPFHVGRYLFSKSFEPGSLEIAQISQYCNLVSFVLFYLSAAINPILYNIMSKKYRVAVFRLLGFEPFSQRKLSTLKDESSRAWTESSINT

CC(C)(N)C(=O)N[C@H](COCc1ccccc1)C(=O)N1CCC2(CC1)CN(S(C)(=O)=O)c1ccccc12 [MK0677]
formation of fluorescent ERCs on co-incubation with excess competitor (GHSR-1a receptor): blocked the formation of fluorescent ERCs

CC[C@H](NC(=O)c1c(C)c(-c2ccccc2)nc2ccccc12)c1ccccc1 [SB222200]
SSTR-5 internalization with excess competitor (SSTR-5): no effect
amount of internalized Atto590-SST14 with increasing amount of competitor (SSTR-5; dose response (FIG. 6)): unaffected
formation of fluorescent ERCs on co-incubation with excess competitor (NK3R [1]): blocked the formation of fluorescent ERCs
NK3R mediated internalization of fluorescent ligand with excess competitor (NK3R [2]; 1 μM competitor (FIG. 5)): blocked

Arg-8-Vasopressin
formation of fluorescent ERCs on co-incubation with excess competitor (hV1bR): blocked the formation of fluorescent ERCs in most cells

Somatostatin-14 [SST14]
SSTR-5 internalization with excess competitor (SSTR-5): inhibited in a selective manner
formation of fluorescent ERCs on co-incubation with excess competitor [3]: block the formation of fluorescent ERCs
intensity of Atto655-NKB in ERCs with increasing amount of competitor (NK3R [2]; dose response (FIG. 6)): unchanged
